{"source": "patent US8470889B2", "about": "(TRT Pharma Inc., priority 2008, dated 2013)", "key": {"MCF-7 cells": {"system": "MCF-7 cells", "assay": "Growth inhibition, MCF-7 breast cancer cells", "format": "cell-based", "settings": "for IC50: Table 10, read-out: Cytotoxicity, IC50 (μM) MCF-7", "text": "(§1) All samples were in triplicate."}, "MDA-MB-231 cells": {"system": "MDA-MB-231 cells", "assay": "Growth inhibition, MDA-MB-231 breast cancer cells", "format": "cell-based", "settings": "for IC50: Table 10, read-out: Cytotoxicity, IC50 (μM) MDA-M B231", "text": "as §1"}, "H-1975 cells": {"system": "H-1975 cells", "assay": "Growth inhibition, H-1975 lung cancer cells", "format": "cell-based", "settings": "for IC50: Table 10, read-out: Cytotoxicity, IC50 (μM) H-1975", "text": "as §1"}, "T877A mutated AR": {"target": "T1, T877A mutated AR (Homo sapiens, UniProt P10275, T878A)", "T1 sequence (P10275 1-920 T878A)": "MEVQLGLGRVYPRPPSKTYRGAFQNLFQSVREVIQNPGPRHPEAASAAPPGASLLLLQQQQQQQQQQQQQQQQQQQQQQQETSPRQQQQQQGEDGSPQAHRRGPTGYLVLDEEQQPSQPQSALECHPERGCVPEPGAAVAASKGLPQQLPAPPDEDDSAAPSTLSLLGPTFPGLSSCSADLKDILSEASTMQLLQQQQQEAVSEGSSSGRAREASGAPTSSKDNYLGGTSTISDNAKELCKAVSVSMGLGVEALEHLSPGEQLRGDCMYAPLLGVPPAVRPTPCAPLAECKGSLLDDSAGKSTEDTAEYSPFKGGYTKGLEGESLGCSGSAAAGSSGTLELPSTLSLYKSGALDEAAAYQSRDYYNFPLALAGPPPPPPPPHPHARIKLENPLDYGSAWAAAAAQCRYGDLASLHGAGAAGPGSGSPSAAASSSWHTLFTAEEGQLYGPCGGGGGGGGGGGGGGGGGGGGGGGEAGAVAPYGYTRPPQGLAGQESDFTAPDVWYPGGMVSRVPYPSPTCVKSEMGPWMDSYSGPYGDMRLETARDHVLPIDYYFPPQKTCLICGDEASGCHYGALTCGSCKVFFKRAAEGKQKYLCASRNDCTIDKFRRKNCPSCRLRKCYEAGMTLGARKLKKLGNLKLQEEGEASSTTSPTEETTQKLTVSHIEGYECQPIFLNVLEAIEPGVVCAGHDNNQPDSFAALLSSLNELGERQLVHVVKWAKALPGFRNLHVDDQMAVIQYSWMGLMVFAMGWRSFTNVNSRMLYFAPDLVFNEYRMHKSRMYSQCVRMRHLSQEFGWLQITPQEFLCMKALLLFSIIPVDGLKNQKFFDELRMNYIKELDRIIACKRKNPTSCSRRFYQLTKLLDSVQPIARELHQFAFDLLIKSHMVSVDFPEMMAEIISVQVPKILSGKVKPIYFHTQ", "assay": "Luciferase assay for AR transactivation, T877A AR, PC-3 cells", "format": "cell-based", "settings": "0.1 nM DHT; for suppression of DHT-induced transactivation of T877A AR: test compound 0.1-1 μM, PC-3 cells; for Antiandrogenic activity evaluated by luciferase assay in PC-3 cells T877A: test compound 1 μM", "protocol": "PC-3 cells were transiently transfected with pCMV-MMTV-Luc, Renilla null luciferase and AR expressing plasmids. The cells were treated with 0.1 nM DHT with and without test compound for 24 hr. Relative luciferase activity was determined by dual luciferase assay kit (Promega), standardized to Renilla luciferase control and normalized to 0.1 nM DHT without test compound (100%).\nAfter 16 h, the cells were treated with 0.1 nM of DHT and test compounds at the designated concentration. After further 24 h, the cells were lysed in 100 μL/well passive lysis buffer, and 20 μL of the cell lysates was used for detection of the luciferase activity using Dual Luciferase Assay System (Promega). All experiments were run in triplicate. Relative luciferase activity is determined as the ratio of inducible firefly luciferase luminescence divided by the luminescence of the renilla luciferase control normalized to 0.1 nM DHT without test compounds.\nThe potency of antagonistic activity: ++>+."}, "HP-LNCaP cells": {"system": "HP-LNCaP cells", "assay": "MTT cellular growth, HP-LNCaP", "format": "cell-based", "settings": "FIG. 10", "protocol": "HP-LNCaP cells were grown in the androgen-depleted medium (FIG. 9A) and grow more aggressively than LNCaP cells in the whole medium (FIG. 9B). Cellular growth was evaluated by MTT assays. […] HP-LNCaP cells over-express AR protein (FIG. 10C)."}, "LNCaP cells": {"system": "LNCaP cells", "settings": "human, 72 h", "experimental": "(§2) MDA PCa 2b was seeded at the same density in medium BRFF-HPC1 (Athena Enzyme Systems, Baltimore, Md., USA) supplemented with 20% FBS. After overnight incubation, the medium was changed to a fresh medium containing different concentrations of test compounds diluted from stock DMSO solution. The final concentration of DMSO is 0.5%. After 72 h of incubation with test compounds, 20 μL of 3-(4,5-dimethyl thiazol-2-yl)-2,5-diphenyltetrazolium bromide (MTT) solution (5 mg/mL in PBS) were added to each well and incubated further for 2 h. Next, the supernatant was aspirated and the MTT formazan formed by metabolically viable cells was dissolved in 100 μL of isopropanol. The plates were mixed for 30 min, and the absorbance was measured at 600 nm on a plate reader (FLUOstar OPTIMA, BMG LabTech). All samples were in triplicate. The IC50 values were determined from dose-response curves by nonlinear regression using PRISM v5.00 (GraphPad Software Inc, La Jolla, Calif., USA).\n(§3) The in vitro cytotoxicity of 1-20 were evaluated by MTT assays in a panel of prostate cancer cell lines, including LNCaP, MDA PCa 2b, 22Rv1, C4-2B and PC-3."}, "MDA PCa 2b cells [1]": {"system": "MDA PCa 2b cells", "experimental": "as §2, §3"}, "22Rv1 cells [2]": {"system": "22Rv1 cells", "experimental": "as §2, §3"}, "C4-2B cells [3]": {"system": "C4-2B cells"}, "PC-3 cells [4]": {"system": "PC-3 cells"}, "PC-3 cells [5]": {"system": "PC-3 cells", "assay": "MTT cell growth inhibition, PC-3"}, "22Rv1 cells [6]": {"system": "22Rv1 cells", "assay": "MTT cell growth inhibition, 22Rv1", "settings": "read-out: Cellular IC50 (μM) 22Rv1; Table 9; MTT", "experimental": "as §2, §3"}, "C4-2B cells [7]": {"system": "C4-2B cells", "assay": "MTT cell growth inhibition, C4-2B", "settings": "read-out: Cellular IC50 (μM) C4-2B, Table 9"}, "MDA PCa 2b cells [8]": {"system": "MDA PCa 2b cells", "assay": "MTT cell growth inhibition, MDA PCa 2b", "settings": "MTT", "experimental": "as §2, §3"}, "[9]": {"system": "NF-κB-dependent luciferase activity induced by expression of IKKi, TBK1, IKKb and p65", "assay": "NF-κB-dependent luciferase activity in HEK293 cells", "format": "cell-based", "settings": "24 h, FIG. 11A-C", "protocol": "Compound 10 inhibits IKKβ, IKKε and TBK1 and suppresses NF-κB activation. […] HEK293 cells were transiently transfected with NF-κB-Luc or ISRE-Luc, co-transfected with plasmid encoding IKKi, TBK1, IKKb, p65 or IRF3 (5D), using Lipofectamine™ 2000 reagent (Invitrogen). The transfected cells were treated with DMSO vehicle and test compounds at designated doses for 24 h. Luciferase activity was evaluated using Dual Luciferase Assay System (Promega) and expressed as fold of induction related to the basal level of the reporter gene after normalization with cotransfected Renilla relative light units.\nNow referring to FIG. 18, the impact of compounds 10, and SC345, SC346 and SC347 on the NF-κB-dependent luciferase activity induced by expression of TBK1 and IKKβ. HEK293 cells were transiently transfected with NF-κB-Luc, co-transfected with plasmid encoding TBK1 or IKKβ, using Lipofectamine™ 2000 reagent (Invitrogen). The transfected cells were treated with DMSO vehicle and test compounds at 2.5 μM for 24 h. Luciferase activity was evaluated using Dual Luciferase Assay System (Promega) and expressed as fold of induction related to the basal level of the reporter gene after normalization with cotransfected Renilla relative light units."}, "DU145 cells": {"system": "DU145 cells", "assay": "IL-6 secretion, Human IL-6 ELISA", "format": "cell-based", "settings": "DU-145 cells, 24 hr"}, "[10]": {"settings": "read-out: Cellular IC50 (μM) PC-3, Table 9"}}, "note": "Like-named read-outs stand apart in the source and are kept apart here."}
{"smiles": "CC1(C)CCC(O)C=C1/C=C/C(=O)/C=C/c1cnc2ccccc2c1", "note": "(centres unmarked) [Compound B95]", "values": [{"measurement": "effect in MCF-7 breast cancer cell line", "setting": "MCF-7 cells", "value": "effective"}, {"measurement": "IC50", "setting": "MCF-7 cells; Homo sapiens, MCF7", "value": 5.5, "unit": "µM"}, {"measurement": "effect in MDA-MB-231 breast cancer cell line", "setting": "MDA-MB-231 cells", "value": "effective"}, {"measurement": "IC50", "setting": "MDA-MB-231 cells; Homo sapiens, MDA-MB-231", "value": 3.6, "unit": "µM"}, {"measurement": "effect in H-1975 lung cancer cell line", "setting": "H-1975 cells", "value": "effective"}, {"measurement": "IC50", "setting": "H-1975 cells; Homo sapiens, NCI-H1975", "value": 4.8, "unit": "µM"}, {"measurement": "suppression of DHT-induced transactivation of T877A AR", "setting": "T877A mutated AR", "value": "effective"}, {"measurement": "Antiandrogenic activity evaluated by luciferase assay in PC-3 cells T877A", "setting": "T877A mutated AR", "value": "++"}, {"measurement": "activity against HP-LNCaP cells", "setting": "HP-LNCaP cells", "value": "remains active"}, {"measurement": "IC50", "setting": "LNCaP cells", "value": 630, "unit": "nM"}, {"measurement": "IC50", "setting": "MDA PCa 2b cells [1]; human, 72 h", "value": 1300, "unit": "nM"}, {"measurement": "IC50", "setting": "22Rv1 cells [2]; human, 72 h", "value": 1100, "unit": "nM"}, {"measurement": "IC50", "setting": "C4-2B cells [3]; human, 72 h", "value": 870, "unit": "nM"}, {"measurement": "IC50", "setting": "PC-3 cells [4]; human, 72 h", "value": 2200, "unit": "nM"}, {"measurement": "IC50", "setting": "PC-3 cells [5]; [10]", "value": 2.3, "unit": "µM"}, {"measurement": "IC50", "setting": "22Rv1 cells [6]", "value": 1.2, "unit": "µM"}, {"measurement": "IC50", "setting": "C4-2B cells [7]", "value": 1.4, "unit": "µM"}, {"measurement": "IC50", "setting": "MDA PCa 2b cells [8]; read-out: Cellular IC50 (μM) PCa 2b, Table 9", "value": 1.3, "unit": "µM"}]}
{"smiles": "CC1=C(/C=C/C(=O)/C=C/c2cccc(C(F)(F)F)c2)C(C)(C)CCC1O", "note": "(racemic) [Compound B25]", "values": [{"measurement": "effect in MCF-7 breast cancer cell line", "setting": "MCF-7 cells", "value": "effective"}, {"measurement": "IC50", "setting": "MCF-7 cells", "value": 5.2, "unit": "µM"}, {"measurement": "effect in MDA-MB-231 breast cancer cell line", "setting": "MDA-MB-231 cells", "value": "effective"}, {"measurement": "IC50", "setting": "MDA-MB-231 cells", "value": 4.4, "unit": "µM"}, {"measurement": "effect in H-1975 lung cancer cell line", "setting": "H-1975 cells", "value": "effective"}, {"measurement": "IC50", "setting": "H-1975 cells", "value": 6.3, "unit": "µM"}, {"measurement": "suppression of DHT-induced transactivation of T877A AR", "setting": "T877A mutated AR", "value": "dose-dependent activity"}, {"measurement": "IC50", "setting": "MDA PCa 2b cells [1]", "value": 2600, "unit": "nM"}, {"measurement": "IC50", "setting": "22Rv1 cells [2]", "value": 1700, "unit": "nM"}, {"measurement": "IC50", "setting": "C4-2B cells [3]", "value": 1400, "unit": "nM"}, {"measurement": "IC50", "setting": "PC-3 cells [4]", "value": 3500, "unit": "nM"}]}
{"smiles": "CC1(C)CCC(O)C=C1/C=C/C(=O)/C=C/c1csc2ccccc12", "note": "(centres unmarked) [Compound B92]", "values": [{"measurement": "suppression of DHT-induced transactivation of T877A AR", "setting": "T877A mutated AR", "value": "pure antagonists"}, {"measurement": "Antiandrogenic activity evaluated by luciferase assay in PC-3 cells T877A", "setting": "T877A mutated AR", "value": "++"}, {"measurement": "NF-κB-dependent luciferase activity induced by expression of IKKi, TBK1, IKKb and p65", "setting": "[9]", "value": "potent effects"}, {"measurement": "secretion of IL-6", "setting": "DU145 cells", "value": "suppress secretion"}, {"measurement": "IC50", "setting": "PC-3 cells [5]; [10]", "value": 3.3, "unit": "µM"}, {"measurement": "IC50", "setting": "PC-3 cells [5]; read-out: Cytotoxicity in prostate cancer cell lines IC50 (μM), PC-3, Part D table, 72 hours, I.A. = Inactive", "value": 2, "unit": "µM"}, {"measurement": "IC50", "setting": "22Rv1 cells [6]", "value": 1.5, "unit": "µM"}, {"measurement": "IC50", "setting": "C4-2B cells [7]", "value": 1.1, "unit": "µM"}, {"measurement": "IC50", "setting": "MDA PCa 2b cells [8]; read-out: Cytotoxicity in prostate cancer cell lines IC50 (μM), PCa-2b, Part D table, 72 hours", "value": 0.87, "unit": "µM"}]}
